{"source": "paper doi:10.1101/2024.08.19.608619", "about": "“Discovery of potent SARS-CoV-2 nsp3 macrodomain inhibitors uncovers lack of translation to cellular antiviral response” (bioRxiv, 2024)", "key": {"[1]": {"molecular_target": "T1, SARS-CoV-2 nsp3-mac1 (Severe acute respiratory syndrome coronavirus 2, UniProt P0DTD1)", "assay": "biochemical", "parameters": "SARS-CoV-2 nsp3 macrodomain TR-FRET single point, per cent inhibition, n=2"}, "[2]": {"molecular_target": "T1, SARS-CoV-2 nsp3-mac1", "assay": "biochemical", "type": "biochemical", "details": "SARS-CoV-2 nsp3 macrodomain TR-FRET single point"}, "[3]": {"details": "read-out: perc_inhibition_mean, batch_name=ASAP-0000418-001"}, "[4]": {"details": "read-out: perc_inhibition_mean, batch_name=ASAP-0000419-001"}, "[5]": {"details": "read-out: perc_inhibition_mean, batch_name=ASAP-0000420-001"}, "[6]": {"details": "read-out: perc_inhibition_mean, batch_name=ASAP-0000421-001"}, "[7]": {"details": "read-out: perc_inhibition_mean, batch_name=ASAP-0000422-001"}, "[8]": {"details": "read-out: perc_inhibition_mean, batch_name=ASAP-0000423-001"}, "[9]": {"details": "read-out: perc_inhibition_mean, batch_name=ASAP-0000424-001"}, "[10]": {"details": "read-out: perc_inhibition_mean, batch_name=ASAP-0000425-001"}, "[11]": {"details": "read-out: perc_inhibition_mean, batch_name=ASAP-0000426-001"}, "[12]": {"details": "read-out: perc_inhibition_mean, batch_name=ASAP-0000427-001"}, "[13]": {"details": "read-out: perc_inhibition_mean, batch_name=ASAP-0000428-001"}, "[14]": {"details": "read-out: perc_inhibition_mean, batch_name=ASAP-0000429-001"}, "[15]": {"details": "read-out: perc_inhibition_mean, batch_name=ASAP-0000430-001"}, "[16]": {"details": "read-out: perc_inhibition_mean, batch_name=ASAP-0000448-001"}, "[17]": {"details": "read-out: perc_inhibition_mean, batch_name=ASAP-0000449-001"}, "[18]": {"details": "read-out: perc_inhibition_mean, batch_name=ASAP-0000451-001"}, "[19]": {"details": "read-out: perc_inhibition_mean, batch_name=ASAP-0000452-001"}}, "note": "Where two headings read alike, the source gives them in different places.", "data": [{"smiles": "Cn1ncnc1C(=O)N1CCC(c2ccn3ncc(C(=O)N4CCCCC4)c3c2)CC1", "note": "[ASAP-0000418]", "values": [{"measurement": "inhibition at 49.75 µM", "setting": "[1]; [3]", "result": 2.38, "unit": "%"}, {"measurement": "inhibition at 99.5 µM", "setting": "[1]; [3]", "result": 20.3, "unit": "%"}, {"measurement": "perc_inhibition_mean", "setting": "[2]; concentration 49.75 uM", "result": 2.38, "unit": "%"}, {"measurement": "perc_inhibition_mean", "setting": "[2]; concentration 99.5 uM", "result": 20.346, "unit": "%"}]}, {"smiles": "O=C(c1nc(=O)[nH][nH]1)N1CCC(c2ccn3ncc(C(=O)N4CCCCC4)c3c2)CC1", "note": "[ASAP-0000419]", "values": [{"measurement": "inhibition at 49.75 µM", "setting": "[1]; [4]", "result": 23.4, "unit": "%"}, {"measurement": "inhibition at 99.5 µM", "setting": "[1]; [4]", "result": 34.6, "unit": "%"}, {"measurement": "perc_inhibition_mean", "setting": "[2]; concentration 49.75 uM", "result": 23.445, "unit": "%"}, {"measurement": "perc_inhibition_mean", "setting": "[2]; concentration 99.5 uM", "result": 34.579, "unit": "%"}]}, {"smiles": "O=C(c1cc(O)ncn1)N1CCC(c2ccn3ncc(C(=O)N4CCCCC4)c3c2)CC1", "note": "[ASAP-0000420]", "values": [{"measurement": "inhibition at 49.75 µM", "setting": "[1]; [5]", "result": 19.1, "unit": "%"}, {"measurement": "inhibition at 99.5 µM", "setting": "[1]; [5]", "result": 30.9, "unit": "%"}, {"measurement": "perc_inhibition_mean", "setting": "[2]; concentration 49.75 uM", "result": 19.125, "unit": "%"}, {"measurement": "perc_inhibition_mean", "setting": "[2]; concentration 99.5 uM", "result": 30.869, "unit": "%"}]}, {"smiles": "O=C(c1c[nH]nn1)N1CCC(c2ccn3ncc(C(=O)N4CCCCC4)c3c2)CC1", "note": "[ASAP-0000421]", "values": [{"measurement": "inhibition at 49.75 µM", "setting": "[1]; [6]", "result": 14.7, "unit": "%"}, {"measurement": "inhibition at 99.5 µM", "setting": "[1]; [6]", "result": 25.7, "unit": "%"}, {"measurement": "perc_inhibition_mean", "setting": "[2]; concentration 49.75 uM", "result": 14.65, "unit": "%"}, {"measurement": "perc_inhibition_mean", "setting": "[2]; concentration 99.5 uM", "result": 25.652, "unit": "%"}]}, {"smiles": "O=C(c1ccc(O)nc1)N1CCC(c2ccn3ncc(C(=O)N4CCCCC4)c3c2)CC1", "note": "[ASAP-0000422]", "values": [{"measurement": "inhibition at 49.75 µM", "setting": "[1]; [7]", "result": 11, "unit": "%"}, {"measurement": "inhibition at 99.5 µM", "setting": "[1]; [7]", "result": 26.5, "unit": "%"}, {"measurement": "perc_inhibition_mean", "setting": "[2]; concentration 49.75 uM", "result": 10.998, "unit": "%"}, {"measurement": "perc_inhibition_mean", "setting": "[2]; concentration 99.5 uM", "result": 26.485, "unit": "%"}]}, {"smiles": "Cc1c[nH]nc1C(=O)N1CCC(c2ccn3ncc(C(=O)N4CCCCC4)c3c2)CC1", "note": "[ASAP-0000423]", "values": [{"measurement": "inhibition at 49.75 µM", "setting": "[1]; [8]", "result": 8.47, "unit": "%"}, {"measurement": "inhibition at 99.5 µM", "setting": "[1]; [8]", "result": 27.4, "unit": "%"}, {"measurement": "perc_inhibition_mean", "setting": "[2]; concentration 49.75 uM", "result": 8.474, "unit": "%"}, {"measurement": "perc_inhibition_mean", "setting": "[2]; concentration 99.5 uM", "result": 27.38, "unit": "%"}]}, {"smiles": "CN(C(=O)c1cnn2ccc(C3CCN(C(=O)c4ccccc4)CC3)cc12)c1ccccc1O", "note": "[ASAP-0000424]", "values": [{"measurement": "inhibition at 49.75 µM", "setting": "[1]; [9]", "result": 10, "unit": "%"}, {"measurement": "inhibition at 99.5 µM", "setting": "[1]; [9]", "result": 15.9, "unit": "%"}, {"measurement": "perc_inhibition_mean", "setting": "[2]; concentration 49.75 uM", "result": 10.02, "unit": "%"}, {"measurement": "perc_inhibition_mean", "setting": "[2]; concentration 99.5 uM", "result": 15.878, "unit": "%"}]}, {"smiles": "COC[C@@H](Nc1ncnc2nc[nH]c12)c1ccc(C)o1", "note": "[ASAP-0000425]", "values": [{"measurement": "inhibition at 49.75 µM", "setting": "[1]; [10]", "result": -4.64, "unit": "%"}, {"measurement": "inhibition at 99.5 µM", "setting": "[1]; [10]", "result": 3.94, "unit": "%"}, {"measurement": "perc_inhibition_mean", "setting": "[2]; concentration 49.75 uM", "result": -4.638, "unit": "%"}, {"measurement": "perc_inhibition_mean", "setting": "[2]; concentration 99.5 uM", "result": 3.942, "unit": "%"}]}, {"smiles": "CC(C)c1nc([C@@H](C)Nc2ncnc3nc[nH]c23)cs1", "note": "[ASAP-0000426]", "values": [{"measurement": "inhibition at 49.75 µM", "setting": "[1]; [11]", "result": 2.65, "unit": "%"}, {"measurement": "inhibition at 99.5 µM", "setting": "[1]; [11]", "result": 3.07, "unit": "%"}, {"measurement": "perc_inhibition_mean", "setting": "[2]; concentration 49.75 uM", "result": 2.645, "unit": "%"}, {"measurement": "perc_inhibition_mean", "setting": "[2]; concentration 99.5 uM", "result": 3.067, "unit": "%"}]}, {"smiles": "CN(c1ncnc2[nH]ncc12)[C@@H](CCO)c1ccccc1", "note": "[ASAP-0000427]", "values": [{"measurement": "inhibition at 49.75 µM", "setting": "[1]; [12]", "result": 8.86, "unit": "%"}, {"measurement": "inhibition at 99.5 µM", "setting": "[1]; [12]", "result": 5.14, "unit": "%"}, {"measurement": "perc_inhibition_mean", "setting": "[2]; concentration 49.75 uM", "result": 8.856, "unit": "%"}, {"measurement": "perc_inhibition_mean", "setting": "[2]; concentration 99.5 uM", "result": 5.14, "unit": "%"}]}, {"smiles": "CC(C)[C@H]1CNC(=O)CN1c1ncnc2[nH]ccc12", "note": "[ASAP-0000428]", "values": [{"measurement": "inhibition at 49.75 µM", "setting": "[1]; [13]", "result": 6.84, "unit": "%"}, {"measurement": "inhibition at 99.5 µM", "setting": "[1]; [13]", "result": 17.6, "unit": "%"}, {"measurement": "perc_inhibition_mean", "setting": "[2]; concentration 49.75 uM", "result": 6.836, "unit": "%"}, {"measurement": "perc_inhibition_mean", "setting": "[2]; concentration 99.5 uM", "result": 17.564, "unit": "%"}]}, {"smiles": "Cc1nc(NC(=O)Cn2cnc3ccccc3c2=O)c2cc[nH]c2n1", "note": "[ASAP-0000429]", "values": [{"measurement": "inhibition at 49.75 µM", "setting": "[1]; [14]", "result": -4.07, "unit": "%"}, {"measurement": "inhibition at 99.5 µM", "setting": "[1]; [14]", "result": -4.89, "unit": "%"}, {"measurement": "perc_inhibition_mean", "setting": "[2]; concentration 49.75 uM", "result": -4.067, "unit": "%"}, {"measurement": "perc_inhibition_mean", "setting": "[2]; concentration 99.5 uM", "result": -4.886, "unit": "%"}]}, {"smiles": "O=C(c1nnn[nH]1)N1CCC(c2ccn3ncc(C(=O)N4CCCCC4)c3c2)CC1", "note": "[ASAP-0000430]", "values": [{"measurement": "inhibition at 49.75 µM", "setting": "[1]; [15]", "result": 55.2, "unit": "%"}, {"measurement": "inhibition at 99.5 µM", "setting": "[1]; [15]", "result": 69, "unit": "%"}, {"measurement": "perc_inhibition_mean", "setting": "[2]; concentration 49.75 uM", "result": 55.152, "unit": "%"}, {"measurement": "perc_inhibition_mean", "setting": "[2]; concentration 99.5 uM", "result": 69.012, "unit": "%"}]}, {"smiles": "Cn1cc([C@H]2CSCCN2c2ncnc3[nH]ccc23)cn1", "note": "[ASAP-0000448]", "values": [{"measurement": "inhibition at 49.75 µM", "setting": "[1]; [16]", "result": -6.49, "unit": "%"}, {"measurement": "inhibition at 99.5 µM", "setting": "[1]; [16]", "result": -3.46, "unit": "%"}, {"measurement": "perc_inhibition_mean", "setting": "[2]; concentration 49.75 uM", "result": -6.49, "unit": "%"}, {"measurement": "perc_inhibition_mean", "setting": "[2]; concentration 99.5 uM", "result": -3.463, "unit": "%"}]}, {"smiles": "Cn1nc(C(=O)N2CCC(c3ccn4ncc(C(=O)N5CCCCC5)c4c3)CC2)cc1C(=O)O", "note": "[ASAP-0000449]", "values": [{"measurement": "inhibition at 49.75 µM", "setting": "[1]; [17]", "result": 42.7, "unit": "%"}, {"measurement": "inhibition at 99.5 µM", "setting": "[1]; [17]", "result": 59.7, "unit": "%"}, {"measurement": "perc_inhibition_mean", "setting": "[2]; concentration 49.75 uM", "result": 42.655, "unit": "%"}, {"measurement": "perc_inhibition_mean", "setting": "[2]; concentration 99.5 uM", "result": 59.743, "unit": "%"}]}, {"smiles": "O=C(O)c1ccc(C(=O)N2CCC(c3ccn4ncc(C(=O)N5CCCCC5)c4c3)CC2)o1", "note": "[ASAP-0000451]", "values": [{"measurement": "inhibition at 49.75 µM", "setting": "[1]; [18]", "result": 40.5, "unit": "%"}, {"measurement": "inhibition at 99.5 µM", "setting": "[1]; [18]", "result": 58.1, "unit": "%"}, {"measurement": "perc_inhibition_mean", "setting": "[2]; concentration 49.75 uM", "result": 40.495, "unit": "%"}, {"measurement": "perc_inhibition_mean", "setting": "[2]; concentration 99.5 uM", "result": 58.121, "unit": "%"}]}, {"smiles": "CC(C)[C@@H](Nc1ncnc2[nH]ccc12)C(F)F", "note": "[ASAP-0000452]", "values": [{"measurement": "inhibition at 49.75 µM", "setting": "[1]; [19]", "result": 81.6, "unit": "%"}, {"measurement": "inhibition at 99.5 µM", "setting": "[1]; [19]", "result": 91.7, "unit": "%"}, {"measurement": "perc_inhibition_mean", "setting": "[2]; concentration 49.75 uM", "result": 81.614, "unit": "%"}, {"measurement": "perc_inhibition_mean", "setting": "[2]; concentration 99.5 uM", "result": 91.659, "unit": "%"}]}]}
